Test results as given in ChEMBL document CHEMBL3414562, “Synthesis of isocryptolepine analogues and their structure-activity relationship studies as antiplasmodial and antiproliferative agents” (Eur J Med Chem, 2015).

Legend:
[1] = tested on: MRC5; assay: Cytotoxicity against human MRC5 cells by MTT assay; assay type: cell-based
[2] = Selectivity index, ratio of IC50 for human MRC5 cells to IC50 for chloroquine-resistant Plasmodium falciparum K1; assay type: toxicity, cell-based; details: read-out: Ratio IC50
[3] = Selectivity index, ratio of IC50 for human MRC5 cells to IC50 for […]; assay type: toxicity, cell-based; details: read-out: Ratio IC50
[4] = Selectivity index, ratio of IC50 for human MRC5 cells to IC50 for chloroquine/mefloquine-resistant Plasmodium falciparum SKF58; assay type: toxicity, cell-based; details: read-out: Ratio IC50
[5] = Selectivity index, ratio of IC50 for human MRC5 cells to IC50 for chloroquine/mefloquine-resistant Plasmodium falciparum SRIV35; assay type: toxicity, cell-based; details: read-out: Ratio IC50
[6] = tested on: HepG2; assay: Cytotoxicity against human HepG2 cells by MTT assay; assay type: functional, cell-based
[7] = Cytotoxicity against human HuCCa1 cells by MTT assay; assay type: functional, cell-based; details: HuCC-A1
[8] = Cytotoxicity against human MOLT3 cells by XTT assay; assay type: functional, cell-based; details: MOLT-3
[9] = tested on: A549; assay: Cytotoxicity against human A549 cells by MTT assay; assay type: functional, cell-based
[10] = Selectivity index, ratio of IC50 for human MRC5 cells to IC50 for human HuCCa1 cells; assay type: functional
[11] = tested on: Plasmodium falciparum; assay: microbe, parasite or virus in culture; details: K1
Description: Antiplasmodial activity against chloroquine-resistant Plasmodium falciparum K1

[12] = tested on: Plasmodium falciparum; assay: microbe, parasite or virus in culture; details: 3D7
Description: Antiplasmodial activity against chloroquine-sensitive Plasmodium falciparum 3D7

[13] = tested on: Plasmodium falciparum; assay: microbe, parasite or virus in culture; details: SKF58
[14] = tested on: Plasmodium falciparum; assay: microbe, parasite or virus in culture; details: SRIV35
[15] = tested on: MRC5; assay: Cytotoxicity against human MRC5 cells at 72014 nM by MTT assay relative to control; assay type: cell-based; details: mrc5, 72.014 µM
[16] = tested on: MRC5; assay: Cytotoxicity against human MRC5 cells at 131866 nM by MTT assay relative to control; assay type: cell-based; details: mrc5, 131.866 µM
[17] = tested on: MRC5; assay: Cytotoxicity against human MRC5 cells at […] uM by MTT assay relative to control; assay type: cell-based; details: mrc5, 91.99 µM
[18] = tested on: MRC5; assay: Cytotoxicity against human MRC5 cells at 137509 nM by MTT assay relative to control; assay type: cell-based; details: mrc5, 137.509 µM
[19] = tested on: MRC5; assay: Cytotoxicity against human MRC5 cells at 144667 nM by MTT assay relative to control; assay type: cell-based; details: mrc5, 144.667 µM

Row | SMILES | IC50 [1] [nM] | selectivity ratio [2] | selectivity ratio [3] | selectivity ratio [4] | selectivity ratio [5] | IC50 [6] [nM] | IC50 [7] [nM] | IC50 [8] [nM] | IC50 [9] [nM] | Ratio IC50 [10] | IC50 [11] [nM] | IC50 [12] [nM] | IC50 [13] [nM] | IC50 [14] [nM] | Activity [15] [%] | Activity [16] [%] | Activity [17] [%] | Activity [18] [%] | Activity [19] [%]
1 | Cc1cccc2c3nc4ccccc4c-3cn(C)c12 | 39500 | 22.2 | 24.6 | 24.6 | 24.6 | 2600 | 16600 | 2920 | 11100 | 2.33 | 1740 | 1570 | 1570 | 1570 |  |  |  |  | 
2 | OC(c1cc(C(F)(F)F)nc2c(C(F)(F)F)cccc12)C1CCCCN1 (stereo not drawn) [MEFLOQUINE] |  |  |  |  |  |  |  |  |  |  |  |  |  | 65 |  |  |  |  | 
3 | Cn1cc2c3cc(Br)ccc3nc-2c2ccc(F)c(F)c21 | > 72000 | > 53.2 | > 248 | > 7.3 |  |  | 42700 | 17400 | 25000 | >1.68 | 1350 | 290 | 9860 | > 2000 | 32.6 |  |  |  | 
4 | Cn1cc2c3cc(Br)ccc3nc-2c2cc(C(F)(F)F)ccc21 | > 132000 | > 96.4 | > 228 | > 108 | > 142 | 75600 | 7440 | 35000 | 105000 | >17.72 | 1370 | 579 | 1220 | 929 |  | 35.85 |  |  | 
5 | Cn1cc2c3cc(Br)ccc3nc-2c2cc(OC(F)(F)F)ccc21 | 86600 | 1280 | 1500 | 799 | 804 | 8200 | 7010 | 2600 | 8460 | 12.36 | 67.9 | 57.7 | 108 | 108 |  |  |  |  | 
6 | COc1cc([C@@H]2c3cc4c(cc3[C@@H](O[C@@H]3O[C@@H]5CO[C@@H](C)O[C@H]5[C@H](O)[C@H]3O)[C@H]3COC(=O)[C@H]23)OCO4)cc(OC)c1O [ETOPOSIDE] |  |  |  |  |  | 40500 |  | 110 |  |  |  |  |  |  |  |  |  |  | 
7 | COc1cccc2c1C(=O)c1c(O)c3c(c(O)c1C2=O)C[C@@](O)(C(=O)CO)C[C@@H]3O[C@H]1C[C@H](N)[C@H](O)[C@H](C)O1 [DOXORUBICIN] | > 92000 |  |  |  |  | 400 | 2390 |  |  |  |  |  |  |  |  |  | 37.13 |  | 
8 | Cn1cc2c3cc(Cl)ccc3nc-2c2cc(Cl)ccc21 | 25200 | 110 | 146 | 194 | 162 | 7900 | 13200 | 930 | 30200 | 1.9 | 228 | 172 | 130 | 156 |  |  |  |  | 
9 | Cn1cc2c3ccc4ccccc4c3nc-2c2cc(Cl)ccc21 | 2620 | 24.1 | 33.6 | 34.3 | 36.3 | 760 | 1550 | 1550 | 1200 | 2.96 | 190 | 136 | 134 | 126 |  |  |  |  | 
10 | Cn1cc2c3ccccc3nc-2c2ccccc21 [ISOCRYPTOLEPINE] | 8350 | 10.7 | 14.3 | 20.4 | 18 | 730 | 1810 | 730 | 1210 | 4.62 |  | 585 | 410 | 463 |  |  |  |  | 
11 | Cn1cc2c3cc(Br)ccc3nc-2c2cc(Cl)cc(F)c21 | > 138000 | > 101 | > 181 | > 97.9 | > 98.2 | 8760 | 11400 | 55700 |  | >12.07 | 1360 | 758 | 1400 | 1400 |  |  |  | 34 | 
12 | Cn1cc2c3cc(Br)ccc3nc-2c2cccc(Cl)c21 | 3150 |  |  |  |  | 2550 | 4920 | 780 | 5500 | 0.64 | > 2000 | > 2000 | > 2000 | > 2000 |  |  |  |  | 
13 | C=C[C@H]1CN2CC[C@H]1C[C@H]2[C@H](O)c1ccnc2ccc(OC)cc12 [QUININE] |  |  |  |  |  |  |  |  |  |  | 113 | 80 | 199 | 431 |  |  |  |  | 
14 | Cn1cc2c3cc(Br)ccc3nc-2c2cc(Cl)ccc21 | > 145000 | > 623 | > 796 | > 893 | > 845 | 4830 | 30800 | 750 | 7030 | >4.7 | 232 | 182 | 162 | 171 |  |  |  |  | 40.45
15 | Cn1cc2c3cc(Br)ccc3nc-2c2cc(F)cc(Cl)c21 | 108000 |  |  |  |  | 3470 | 8000 |  | 35900 | 13.5 | > 2000 | > 2000 | > 2000 | > 2000 |  |  |  |  | 
16 | Cc1cc(Br)cc2c3cn(C)c4ccc(Cl)cc4c-3nc12 | 5430 | 37.8 | 57.7 | 59.2 | 63.2 | 1390 | 6150 | 1170 | 2340 | 0.89 | 145 | 95 | 92.6 | 86.7 |  |  |  |  | 
17 | C[C@H]1[C@H](OC(=O)CCC(=O)O)O[C@@H]2O[C@@]3(C)CC[C@H]4[C@H](C)CC[C@@H]1[C@@]24OO3 [ARTESUNATE] |  |  |  |  |  |  |  |  |  |  | 3.5 | 4.2 | 10 | 4.1 |  |  |  |  | 
18 | COc1ccc2nc3c4cc(Cl)ccc4n(C)cc-3c2c1 | 3100 | 7.52 | 13.5 | 13.8 | 13.7 | 2190 | 10400 | 2900 | 6980 | 0.28 | 380 | 211 | 207 | 209 |  |  |  |  | 
19 | Cn1cc2c3cc(Br)ccc3nc-2c2cccc(F)c21 | 15300 | 51.8 | 86.1 | 63 | 65.2 | 3220 | 4480 | 1090 | 6170 | 3.42 | 296 | 178 | 243 | 235 |  |  |  |  | 
20 | Cn1cc2c3ccccc3nc-2c2cccc(Cl)c21 | 12400 |  |  |  |  | 2620 | 21000 | 1270 | 8590 | 0.59 | > 2000 | > 2000 | > 2000 | > 2000 |  |  |  |  | 
21 | Cn1cc2c3cc(Br)ccc3nc-2c2ccc(F)cc21 | 26300 | 425 | 693 | 284 | 317 | 7410 | 10200 | 1260 | 7970 | 2.58 | 61.8 | 37.9 | 92.4 | 83 |  |  |  |  | 
22 | Cn1cc2c3cc(F)ccc3nc-2c2cc(Cl)ccc21 | 4040 | 14.1 | 24.4 | 22.8 | 22.9 | 810 | 9480 | 740 | 7900 | 0.43 | 288 | 166 | 177 | 176 |  |  |  |  | 
23 | Cn1cc2c3ccccc3nc-2c2cc(Cl)ccc21 | 10400 | 32.5 | 47.1 | 45.7 | 48 | 640 | 6450 | 520 | 1500 | 1.62 | 321 | 221 | 228 | 217 |  |  |  |  | 
24 | Cn1cc2c3cc(Br)ccc3nc-2c2cc(F)ccc21 | 122000 | 650 | 1020 | 921 | 577 | 3650 | 15000 | 880 | 13200 | 8.14 | 188 | 119 | 132 | 211 |  |  |  |  | 
